Measured values from patent US20240254109A1, “SALT CONTAINING PIPERAZINE POLYCYCLIC DERIVATIVE, CRYSTAL FORM THEREOF, PREPARATION METHOD THEREFOR, AND USE THEREOF” (Shanghai Hansoh Biomedical Co., Ltd., priority 2021, published 2024).
Values belong to the compound of their own block, whether it stands above or below them.

What was measured:
[1] = Study on the salt form of compound (salt forming with counter ion acids); type: physicochemical; conditions: for Phenomenon after the addition of acid: acid 1:1.2, room temperature
Experimental: To identify which counter ion acids can form salts with the compound by selecting different counter ion acids.
10 mg of free base was weighed. 200 μL of tetrahydrofuran was added. Different counter ion acids were added separately at room temperature, and the solvent was volatilized to dry. If a solid was precipitated during the reaction, the suspension was centrifuged, and the resulting solid was vacuum dried at 50° C. […] The resulting suspension was centrifuged and the supernatant was removed. The solid was dried in vacuum at 50° C.
10 mg of free base was weighed, and 200 μL of acetone was added. Different counter ion acids were added separately at room temperature, and the solvent was volatilized to dry. If a solid was precipitated, the resulting solid was dried in vacuum overnight at 50° C. […] The resulting suspension was centrifuged, and the supernatant was removed. The solid was dried in vacuum at 50° C.
10 mg of free base compound was weighed, and 100 μL of organic solvent was added to the suspension state. The corresponding acid was added according to the molar ratio of 1:1.2 at room temperature, and the reaction was stirred for 4d. The reaction was centrifuged, and the resulting solid was dried in vacuum at 50° C.

[2] = Study on the crystal form of salt of compound (crystallization with counter ion acids); type: physicochemical; conditions: for Phenomenon: base: acid=1:1.2, 25° C.; for Phenomenon after the addition of acid / Results: volatilization method; for Phenomenon after the addition of acid: crystal form B of free base in tetrahydrofuran, base: acid=1:1.2; for Results: tetrahydrofuran volatilized at room temperature
Experimental: To identify which counter ion acids can form crystal form of salt of compound by selecting different counter ion acids according to suitable crystallization methods.
1 mL of the solution was taken into a glass bottle, and different counter ion acids (molar reaction ratio of base: acid=1:1.2) were added, and then the glass bottle was opened at room temperature to volatile solvent. The amorphous or oily was pulped with 200 μL of ethyl acetate.
1) 10 mg of crystal form B of free base was weighed, and 200 μL of methanol solvent was added, and counter ion acid (molar reaction ratio of base: acid=1:1.2) was added respectively at 25° C.
2) 85 mg of crystal form B of free base was weighed, and ethyl acetate was added to produce a clear solution. Different counter ion acids (molar reaction ratio of base: acid=1:1.2) were added respectively at 25° C.

[3] = free base suspended in 100 μL Isopropanol
[4] = free base suspended in 100 μL Isopropanol, acid 1:1.2, stirred 4d

- Product ([1]; acetone volatilized to dry): Gel
- After adding 200 μL of ethyl acetate ([1]; stirred 4 hours at room temperature): Gel
SMILES: CS(=O)(=O)O [Methanesulfonic acid (1 mol/L in EtOH)]

SMILES: CC(=O)O [1M acetic acid in methanol]
- Phenomenon ([2]; solvent Isopropanol): Turbid
- Phenomenon ([2]; solvent Isopropyl ether): Turbid

- Phenomenon ([2]; solvent Isopropyl ether): Turbid
SMILES: O=C(O)/C=C/C(=O)O [0.25M fumaric acid in ethanol]

SMILES: Cl [1.0M hydrochloric acid (in methanol)]
- Phenomenon ([2]; solvent 2-Butanone): Clear
- Phenomenon ([2]; solvent 2-Methyl-tetrahydrofuran): Suspension
- Phenomenon ([2]; solvent Acetone): Suspension
- Phenomenon ([2]; solvent Ethanol): Clear
- Phenomenon ([2]; solvent Ethyl acetate): Suspension
- Phenomenon ([2]; solvent Ethyl formate): Precipitation
- Phenomenon ([2]; solvent Isopropanol): Suspension
- Phenomenon ([2]; solvent Isopropyl acetate): Suspension
- Phenomenon ([2]; solvent Methyl tert-butyl ether): Suspension
- Phenomenon after the addition of acid [2]: Clear
- Results [2]: Oil or gel

- Phenomenon after the addition of acid [1, 3]: muddy
- Product [1, 4]: Salt forming
SMILES: O=C(O)/C=C/C(=O)O [Fumaric acid]

- Phenomenon after the addition of acid [2]: Clear
- Results [2]: Oil or gel
SMILES: CS(=O)(=O)O [1.0M methanesulfonic acid (in ethanol)]

SMILES: CC(=O)O [1.0M acetic acid (in methanol)]
- Phenomenon after the addition of acid [2]: Clear
- Results [2]: Oil or gel

SMILES: CC(=O)O [Acetic acid]
- Phenomenon after the addition of acid [1, 3]: muddy
- Product [1, 4]: Salt forming
